Like-named read-outs stand apart in the source and are kept apart here.
Assays:
[1] = test system: MAb MBr1 with breast cancer cell lines such as MCF-7; test: flow cytometry inhibition assay of mAb MBr1 reactivity with MCF-7; type: cell-based; settings: for inhibition of reactivity of MAb MBr1 with breast cancer cell lines such as MCF-7: 8 μg/ml of preparation
Description: By Thin Layer Chromatography (TLC) the 2 preparations migrate as similar single bands. […] The high level of reactivity of the β structure with mAb MBr1 was confirmed using flow cytometry inhibition assays. Reactivity of MAb MBr1 with breast cancer cell lines such as MCF-7 was 98% inhibited by 8 μg/ml of the β linkage preparation but was only 6% inhibited by 8 μg of the α-linkage preparation.
(§1) The breast tumor glycolipid associated antigen 2 (See FIG. 24) isolated by Hakomori and co-workers from MCF-7 cells, and termed globe H, constituted a promising possibility for exploration (Kannagi, R., et al., J. Biol. Chem. 1983, 258, 8934; Bremer, G., et al., J. Biol. Chem. 1984 259, 14773). Early studies in this area were facilitated by the immunocharacterization of the antigen by the murine monoclonal antibody Mbr1 (Menard, S., et al., Cancer Res. 1983, 43, 1295). Previously, we had described the total synthesis of the hexacyclic globo H glycal 1 (See FIG. 24) by the method of glycal assembly (See FIG. 24) (Bilodeau, M.T., et al., J. Am. Chem. Soc. 1995 117, 7840; Park, et al., J. Am. Chem. Soc. 1996, 118, 11488). This system was carried forward to reach antigen 2 (See FIG. 24), whose structure assignment was verified by unambiguous spectroscopic corroboration through this synthesis.

MBr1 monoclonal antibody = test: Immune TLC with monoclonal antibody MBr1; type: binding, murine; settings: comparable staining with 1/10 the amount of antigen
[2] = test system: antisera binding to globo H antigen 2; test: inhibition of binding of anti-globo H antisera to globo H antigen 2 (ELISA); parameters: species or system mice
Description: As an indication of specificity, we conducted assays with compounds 2-8 of FIGS. 24 and 25 to determine their ability to inhibit the binding of antisera to the fully synthetic globo H antigen 2 (FIG. 28). […] Partial inhibition resulted from truncated globo H compounds, but not with unrelated compounds such as ganglioside GD3. These findings are consistent with a polyclonal serological response in which different antibodies react with different portions of compound 2.

mAb MBr1 = test: binding to mAb MBr1, mapping of structural requirements; parameters: species or system murine
Description: as §1
We then built upon the logic of our synthesis to prepare congeners of the compound and to use them to map the structural requirements for binding to the mAb MBr1.

[3] = test system: mice (antibodies against the immunizing antigen); test: immunization of mice with Le^y conjugates 17c and 32c, ELISA antibody titer; type: in vivo; settings: one set of 5 mice; graphs J-L
Description: The stage was set for immunizations with conjugates 17c and 32c. The immunizations with the BSA conjugate 17c were carried out on two sets of 5 mice and the immunizations with the ceramide conjugate 32c were carried out on one set of 5 mice. An enzyme-linked immunosorbant assay (ELISA) was used to measure antibody titer (FIG. 20(b)). Three different ELISA experiments were performed to measure antibody titer. The first is the measure of total antibody response (aIg), that is the summation of IgM and IgG antibodies, as shown in graphs A, D, G. and J of FIGS. 21(a) and (b). The other two assays measure IgM and IgG antibodies separately as indicated in the graphs. The ELISA assay (see FIG. 20(b)) involves the immobilization of a test antigen in a microtiter well. The serum to be tested for antibodies is placed in the well. Any antibodies in the serum recognizing the test antigen will remain in the well after thorough washing. Next, modified anti-mouse Ig, IgM, or IgG antibodies are placed in the well. […] The presence of the alkaline phosphatase-linked secondary antibody causes cleavage of the phosphate, yielding the yellow p-nitrophenolate anion, which can be quantified using spectrophotometric techniques.
Graphs A, B, and C in FIG. 21(a) show the measured titers of total antibody Ig (A), IgM (B), and IgG (C) type antibodies in five mice immunized with conjugate 17c. […]

Row | Molecule | inhibition of reactivity of MAb MBr1 with breast cancer cell lines such as MCF-7 [1] | reactivity with MBr1 monoclonal antibody, β-form relative to the other form (MBr1 monoclonal antibody) | inhibition of binding of antisera to globo H antigen 2 [2] | inhibition of MBr1 binding to MCF-7 cells [1] | binding to mAb MBr1 (mAb MBr1) | binding to mAb MBr1 (mAb MBr1; listed as 1b) | IgG response [3] | IgM response [3]
1 | Fucα1→2GalB1→3GalNAcα1→3Galα1→4GalB1→1Cer [α-linkage preparation] | 6% |  |  |  |  |  |  | 
2 | Fuca1→GalB1→3GalNAcB1→3Galα1→4GlB1→4GcB1→1Cer [compound 2] | 98% | 10 times | complete inhibition | inhibited its binding to MCF-7 cells | bind to the murine monoclonal antibody (mAb) MBr1 | bind to the monoclonal antibody MBr1 |  | 
3 | CCCCCCCCCCCCCC=C[C@@H](O)[C@@H](CO[C@@H]1O[C@H](CO)[C@@H](O[C@@H]2O[C@H](CO)[C@H](O)[C@H](O)[C@H]2O[C@@H]2O[C@@H](C)[C@@H](O)[C@@H](O)[C@@H]2O)[C@H](O[C@@H]2O[C@@H](C)[C@@H](O)[C@@H](O)[C@@H]2O)[C@H]1NC(C)=O)NC(=O)CCCCCCCCCCCCCCC [32c, (3R)-Hydroxy-(2R)-hexadecanamido-4-octadecenyl-[[[(6-deoxy-a-L-galactopyranosyl)-(1→2)]-(b-D-galactopyranosyl)-(1→4)]-(6-deoxy-a-L-galactopyranosyl)-(1→3)]-2-deoxy-2-acetamido-b-D-glucopyranose] |  |  |  |  |  |  | No mice showed any IgG response | Most mice showed only a weak IgM response
